From patent US20240158418A1 (C4 Therapeutics, Inc., priority 2021, published 2024)

molecular target: T1, EGFR L858R-T790M (Homo sapiens, UniProt P00533, L858R/T790M); experiment: EGFR degradation, Total EGFR (L858R-specific) HTRF, NCI-H1975; type: cell-based; details: Table 9A; NCI-H1975 cells, 6 hours, Total EGFR HTRF; read-out: H1975 EGFR DC50
T1 construct: NCI-H1975 (harboring EGFR heterozygous L858R-T790M mutations); host or cells: NCI-H1975
Excerpt: NCI-H1975 (harboring EGFR heterozygous L858R-T790M mutations) and NCI-H3255 (harboring EGFR heterozygous L858R mutation) were purchased from ATCC and NCI, respectively. NCI-H1975+CS (harboring EGFR heterozygous L858R-T790M-C797S mutations) was generated using CRISPR technology to introduce the additional C797S mutation by Horizon Discovery. A431 (harboring EGFR wildtype) was purchased from ATCC. RPMI 1640 no-phenol red medium and fetal bovine serum (FBS) were purchased from Gibco (Grand Island, NY, USA). Cell culture flasks and 384-well microplates were acquired from VWR (Radnor, PA, USA). Phosphorylated (pY1068) EGFR and Total EGFR (using L858R-specific detection antibody and pan-EGFR antibody for EGFR mutant cell lines and EGFR wild-type cell lines, respectively) HTRF assay kits were purchased from Cisbio (Bedford, MA, USA).
Degradation of EGFR protein containing L858R mutation or wild-type was determined based on quantification of FRET signal using a Total EGFR (L858R-specific or pan-EGFR detecting) HTRF assay kit. Phospho-EGFR (pEGFR) inhibition was determined based on quantification of FRET signal using a pY1068 EGFR HTRF assay kit. In separate assay plates, test compounds were added to the 384-well plate from a top concentration of 10 μM with 11 points, half log titration in duplicates. For each assay, 12.5 uL of cells suspended in assay media (RPMI 1640 no-phenol red medium+10% FBS) at cell densities indicated for each cell line in Table 8 below were dispensed using a multi-channel pipette to 384-well low volume white HTRF microplates containing a duplicate concentration range of test compounds and DMSO controls. The plates were kept at 37° C. with 5% CO2 for 6 hours and then incubated with either phospho EGFR or Total EGFR HTRF detection antibodies according to the cell line and EGFR mutant being assayed. Cells treated in the absence of the test compound were the negative control. Positive control was set by wells containing all reagents but no cells. FRET signal was acquired on EnVision™ Multilabel Reader (PerkinElmer, Santa Clara, CA, USA). Compound concentration that achieves 50% degradation and inhibition was reported as DC50 and IC50, respectively.

T1 sequence (P00533 25-1210 T790M/L858R): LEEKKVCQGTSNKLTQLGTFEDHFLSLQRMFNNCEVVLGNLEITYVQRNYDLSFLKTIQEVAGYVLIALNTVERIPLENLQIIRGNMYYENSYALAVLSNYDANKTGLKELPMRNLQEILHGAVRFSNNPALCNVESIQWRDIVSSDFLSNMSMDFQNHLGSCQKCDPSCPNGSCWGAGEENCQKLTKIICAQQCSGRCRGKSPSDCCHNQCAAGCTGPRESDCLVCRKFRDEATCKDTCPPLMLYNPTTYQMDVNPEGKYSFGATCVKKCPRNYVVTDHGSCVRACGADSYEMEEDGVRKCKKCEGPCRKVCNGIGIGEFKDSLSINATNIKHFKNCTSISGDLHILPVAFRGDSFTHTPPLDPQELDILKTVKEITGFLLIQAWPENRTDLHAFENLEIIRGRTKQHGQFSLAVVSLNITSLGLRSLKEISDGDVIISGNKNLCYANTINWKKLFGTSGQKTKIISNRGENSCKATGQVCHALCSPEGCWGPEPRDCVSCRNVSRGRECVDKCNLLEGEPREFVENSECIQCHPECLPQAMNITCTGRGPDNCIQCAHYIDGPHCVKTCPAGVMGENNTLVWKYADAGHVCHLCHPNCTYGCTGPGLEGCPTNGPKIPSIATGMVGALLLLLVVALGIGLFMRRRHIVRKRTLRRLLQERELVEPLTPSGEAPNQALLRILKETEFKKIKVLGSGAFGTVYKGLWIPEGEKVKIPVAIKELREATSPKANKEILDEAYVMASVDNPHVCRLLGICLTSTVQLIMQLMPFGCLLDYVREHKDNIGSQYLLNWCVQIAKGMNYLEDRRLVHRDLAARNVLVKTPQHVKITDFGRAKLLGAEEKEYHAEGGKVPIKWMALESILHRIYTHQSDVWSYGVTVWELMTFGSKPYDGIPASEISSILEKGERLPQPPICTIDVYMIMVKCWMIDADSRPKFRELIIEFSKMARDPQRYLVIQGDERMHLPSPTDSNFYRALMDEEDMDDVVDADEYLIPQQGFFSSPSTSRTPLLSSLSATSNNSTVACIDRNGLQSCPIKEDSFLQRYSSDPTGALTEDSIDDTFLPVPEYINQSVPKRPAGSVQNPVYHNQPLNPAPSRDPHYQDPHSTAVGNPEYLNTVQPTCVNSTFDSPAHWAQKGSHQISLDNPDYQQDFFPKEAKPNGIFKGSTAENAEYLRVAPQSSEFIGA

| Structure (SMILES) | DC50 [nM] |
| --- | --- |
| O=C1CCC(Nc2ccc(N3CCC(O)(CC(=O)N4CCN(c5ccc(-c6cc(F)c7c(c6)C(=O)N(C(C(=O)Nc6nccs6)c6ncn8c6CCC8)C7)cc5)CC4)CC3)c(C(F)(F)F)c2)C(=O)N1 (stereo not shown) [Compound 18, 2-(6,7-dihydro-5H-pyrrolo[1,2-c]imidazol-1-yl)-2-(6-(4-(4-(2-(1-(4-((2,6-dioxopiperidin-3-yl)amino)-2-(trifluoromethyl)phenyl)-4-hydroxypiperidin-4-yl)acetyl)piperazin-1-yl)phenyl)-4-fluoro-1-oxoisoindolin-2-yl)-N-(thiazol-2-yl)acetamide] | < 50 |

same assay, conditions: Table 9B; NCI-H1975 cells, 6 hours, Total EGFR HTRF; read-out: H1975 EGFR DC50

| Structure (SMILES) | DC50 [nM] |
| --- | --- |
| O=C1CCC(c2ccc(N3CCC(O)(CC(=O)N4CC5(C4)CN(c4ccc(-c6cc(F)c7c(c6)C(=O)N(C(C(=O)Nc6nccs6)c6ncn8c6CCC8)C7)cc4)C5)CC3)c(F)c2)C(=O)N1 (stereo not shown) [Compound 157, 2-(6,7-dihydro-5H-pyrrolo[1,2-c]imidazol-1-yl)-2-(6-(4-(6-(2-(1-(4-(2,6-dioxopiperidin-3-yl)-2-fluorophenyl)-4-hydroxypiperidin-4-yl)acetyl)-2,6-diazaspiro[3.3]heptan-2-yl)phenyl)-4-fluoro-1-oxoisoindolin-2-yl)-N-(thiazol-2-yl)acetamide] | > 150 |
| Cn1nc(N2CCC(=O)NC2=O)c2cc(F)c(C3CCN(CC(=O)N4CC5(C4)CN(c4ccc(-c6cc(F)c7c(c6)C(=O)N(C(C(=O)Nc6nccs6)c6ncn8c6CCC8)C7)cc4)C5)CC3(F)F)cc21 (single isomer, unassigned; isomer 2) [Compound 130, 2-(6,7-dihydro-5H-pyrrolo[1,2-c]imidazol-1-yl)-2-[6-[4-[2-[2-[4-[3-(2,4-dioxohexahydropyrimidin-1-yl)-5-fluoro-1-methyl-indazol-6-yl]-3,3-difluoro-1-piperidyl]acetyl]-2,6-diazaspiro[3.3]heptan-6-yl]phenyl]-4-fluoro-1-oxo-isoindolin-2-yl]-N-thiazol-2-yl-acetamide, isomer 2] | < 50 |
| O=C1CCC(Nc2ccc(N3CCCC(O)(CC(=O)N4CC5(C4)CN(c4ccc(-c6cc(F)c7c(c6)C(=O)N(C(C(=O)Nc6nccs6)c6ncn8c6CCC8)C7)cc4)C5)CC3)c(F)c2)C(=O)N1 (single isomer, unassigned; isomer b1) [Compound 166, 2-(6,7-dihydro-5H-pyrrolo[1,2-c]imidazol-1-yl)-2-[6-[4-[2-[2-[1-[4-[[2,6-dioxo-3-piperidyl]amino]-2-fluoro-phenyl]-4-hydroxy-azepan-4-yl]acetyl]-2,6-diazaspiro[3.3]heptan-6-yl]phenyl]-4-fluoro-1-oxo-isoindolin-2-yl]-N-thiazol-2-yl-acetamide, isomer B1] | 50 to 150 |
| Cn1nc(N2CCC(=O)NC2=O)c2ccc([C@H]3CCN(C(=O)CN4CCC5(CC4)CN(c4ccc(-c6cc(F)c7c(c6)C(=O)N(C(C(=O)Nc6nccs6)c6ncn8c6CCC8)C7)cc4)C5)CC3(F)F)cc21 (stereo partly drawn) [Compound 140, 2-(6,7-dihydro-5H-pyrrolo[1,2-c]imidazol-1-yl)-2-[6-[4-[7-[2-[(4R)-4-[3-(2,4-dioxohexahydropyrimidin-1-yl)-1-methyl-indazol-6-yl]-3,3-difluoro-1-piperidyl]-2-oxo-ethyl]-2,7-diazaspiro[3.5]nonan-2-yl]phenyl]-4-fluoro-1-oxo-isoindolin-2-yl]-N-thiazol-2-yl-acetamide] | < 50 |
| O=C1CCC(Nc2ccc(N3CCC(O)(CC(=O)N4CC5(C4)CN(c4ccc(-c6ccc7cn(C(C(=O)Nc8nccs8)c8ncn9c8CCC9)nc7c6F)cn4)C5)CC3)c(F)c2)C(=O)N1 (stereo not shown) [Compound 74, 2-(6,7-dihydro-5H-pyrrolo[1,2-c]imidazol-1-yl)-2-[6-[6-[2-[2-[1-[4-[(2,6-dioxo-3-piperidyl)amino]-2-fluoro-phenyl]-4-hydroxy-4-piperidyl]acetyl]-2,6-diazaspiro[3.3]heptan-6-yl]-3-pyridyl]-7-fluoro-indazol-2-yl]-N-thiazol-2-yl-acetamide] | < 50 |
| O=C1CCC(Nc2cc(F)c(N3CCC(CC(=O)N4CC5(C4)CN(c4ccc(-c6cc(F)c7c(c6)C(=O)N(C(C(=O)Nc6nccs6)c6ncn8c6CCC8)C7)cc4)C5)CC3)c(F)c2)C(=O)N1 (stereo not shown) [Compound 101, 2-(6,7-dihydro-5H-pyrrolo[1,2-c]imidazol-1-yl)-2-(6-(4-(6-(2-(1-(4-((2,6-dioxopiperidin-3-yl)amino)-2,6-difluorophenyl)piperidin-4-yl)acetyl)-2,6-diazaspiro[3.3]heptan-2-yl)phenyl)-4-fluoro-1-oxoisoindolin-2-yl)-N-(thiazol-2-yl)acetamide] | 50 to 150 |
| Cn1nc(N2CCC(=O)NC2=O)c2ccc(C3CCN(CC(=O)N4CC5(C4)CN(c4ccc(-c6cc(F)c7c(c6)C(=O)N(C(C(=O)Nc6nccs6)c6ncn8c6CCC8)C7)cc4)C5)CC3F)cc21 (single isomer, unassigned; isomer 2) [Compound 125, 2-(6,7-dihydro-5H-pyrrolo[1,2-c]imidazol-1-yl)-2-[6-[4-[2-[2-[4-[3-(2,4-dioxohexahydropyrimidin-1-yl)-1-methyl-indazol-6-yl]-3-fluoro-1-piperidyl]acetyl]-2,6-diazaspiro[3.3]heptan-6-yl]phenyl]-4-fluoro-1-oxo-isoindolin-2-yl]-N-thiazol-2-yl-acetamide, isomer 2] | < 50 |
| O=C1CC[C@H](Nc2ccc(C3CCN(C(=O)CC4CC5(C4)CN(c4ccc(-c6cc(F)c7c(c6)C(=O)N(C(C(=O)Nc6nccs6)c6ncn8c6CCC8)C7)cc4)C5)CC3)c(F)c2)C(=O)N1 (stereo partly drawn) [Compound 100, 2-(6,7-dihydro-5H-pyrrolo[1,2-c]imidazol-1-yl)-2-(6-(4-(6-(2-(4-(4-(((S)-2,6-dioxopiperidin-3-yl)amino)-2-fluorophenyl)piperidin-1-yl)-2-oxoethyl)-2-azaspiro[3.3]heptan-2-yl)phenyl)-4-fluoro-1-oxoisoindolin-2-yl)-N-(thiazol-2-yl)acetamide] | < 50 |
| O=C1CC[C@H](Nc2ccc(N3CCC(O)(CC(=O)N4CC5(C4)CN(c4ccc(-c6cc(F)c7cn(C(C(=O)Nc8nccs8)c8ncn9c8CCC9)nc7c6)cn4)C5)CC3)c(F)c2)C(=O)N1 (stereo partly drawn) [Compound 75, 2-(6,7-dihydro-5H-pyrrolo[1,2-c]imidazol-1-yl)-2-[6-[6-[2-[2-[1-[4-[[(3S)-2,6-dioxo-3-piperidyl]amino]-2-fluoro-phenyl]-4-hydroxy-4-piperidyl]acetyl]-2,6-diazaspiro[3.3]heptan-6-yl]-3-pyridyl]-4-fluoro-indazol-2-yl]-N-thiazol-2-yl-acetamide] | < 50 |
| Cn1nc(N2CCC(=O)NC2=O)c2ccc(C3CCN(CC(=O)N4CC5(CCN(c6ccc(-c7cc(F)c8c(c7)C(=O)N(C(C(=O)Nc7nccs7)c7ncn9c7CCC9)C8)cc6)CC5)C4)CC3(F)F)cc21 (stereo not shown) [Compound 106, 2-(6,7-dihydro-5H-pyrrolo[1,2-c]imidazol-1-yl)-2-(6-(4-(2-(2-(4-(3-(2,4-dioxotetrahydropyrimidin-1(2H)-yl)-1-methyl-1H-indazol-6-yl)-3,3-difluoropiperidin-1-yl)acetyl)-2,7-diazaspiro[3.5]nonan-7-yl)phenyl)-4-fluoro-1-oxoisoindolin-2-yl)-N-(thiazol-2-yl)acetamide] | < 50 |
| O=C1CC[C@@H](Nc2ccc(N3CCC(O)(CC(=O)N4CC5(C4)CN(c4ccc(-c6cc(F)c7c(c6)C(=O)N(C(C(=O)Nc6nccs6)c6ncn8c6C[C@@H](F)C8)C7)cc4)C5)CC3)c(F)c2)C(=O)N1 (stereo partly drawn) [Compound 132, 2-[6-[4-[2-[2-[1-[4-[[(3R)-2,6-dioxo-3-piperidyl]amino]-2-fluoro-phenyl]-4-hydroxy-4-piperidyl]acetyl]-2,6-diazaspiro[3.3]heptan-6-yl]phenyl]-4-fluoro-1-oxo-isoindolin-2-yl]-2-[(6R)-6-fluoro-6,7-dihydro-5H-pyrrolo[1,2-c]imidazol-1-yl]-N-thiazol-2-yl-acetamide] | < 50 |
| O=C1CCC(Nc2ccc(N3CCCC(O)(CC(=O)N4CC5(C4)CN(c4ccc(-c6cc(F)c7c(c6)C(=O)N(C(C(=O)Nc6nccs6)c6ncn8c6CCC8)C7)cc4)C5)CC3)c(F)c2)C(=O)N1 (single isomer, unassigned; isomer b2) [Compound 167, 2-(6,7-dihydro-5H-pyrrolo[1,2-c]imidazol-1-yl)-2-[6-[4-[2-[2-[1-[4-[[2,6-dioxo-3-piperidyl]amino]-2-fluoro-phenyl]-4-hydroxy-azepan-4-yl]acetyl]-2,6-diazaspiro[3.3]heptan-6-yl]phenyl]-4-fluoro-1-oxo-isoindolin-2-yl]-N-thiazol-2-yl-acetamide, isomer B2] | 50 to 150 |
